In patent US20240041042A1, “1-(PYRIDYL)-5-AZINYLPYRAZOLE DERIVATIVES, AND THEIR USE FOR CONTROL OF UNDESIRED PLANT GROWTH” (Bayer Aktiengesellschaft, priority 2020, published 2024):

Assays:
Format in all cases: in vivo
[1] = system: Polygonum convolvulus (POLCO); experiment: Post-emergence herbicidal action against POLCO
How it was run: (§1)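 Greenhouse plants sprayed at the one-leaf stage, 2–3 weeks after sowing, with WP or EC formulations plus 0.5% additive at 600 l/ha water. Activity rated visually after about 3 weeks versus untreated controls (100% = dead, 0% = like control), at 320 g/ha or lower.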

[2] = system: Polygonum convolvulus (POLCO); experiment: Pre-emergence herbicidal action against POLCO
How it was run: (§2)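 Pre-emergence soil-surface spray of compound, formulated as wettable powder or emulsion concentrate, in aqueous suspension or emulsion with 0.5% additive (600 l/ha; rate 320 g/ha or less). Activity rated visually after roughly 3 weeks in the greenhouse as a percentage of untreated controls, 0% meaning no difference.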

[3] = system: Lolium rigidum (LOLRI); experiment: Pre-emergence herbicidal action against LOLRI
How it was run: as §2

[4] = system: Viola tricolor (VIOTR); experiment: Post-emergence herbicidal action against VIOTR
How it was run: as §1

[5] = system: Digitaria sanguinalis (DIGSA); experiment: Post-emergence herbicidal action against DIGSA; conditions: visual rating about 3 weeks after treatment
How it was run: as §1

[6] = system: Echinochloa crus-galli (ECHCG); experiment: Pre-emergence herbicidal action against ECHCG; conditions: dosage 320 g/ha
How it was run: as §2

[7] = system: Viola tricolor (VIOTR); experiment: Pre-emergence herbicidal action against VIOTR
How it was run: as §2

[8] = system: Matricaria inodora (MATIN); experiment: Pre-emergence herbicidal action against MATIN
How it was run: as §2

[9] = system: Setaria viridis (SETVI); experiment: Pre-emergence herbicidal action against SETVI
How it was run: as §2

[10] = system: Verconica persica (VERPE); experiment: Pre-emergence herbicidal action against VERPE
How it was run: as §2

[11] = system: Avena fatua (AVEFA); experiment: Pre-emergence herbicidal action against AVEFA; conditions: 320 g/ha, visual scoring after about 3 weeks vs untreated controls
How it was run: as §2

[12] = system: Pharbitis purpurea (PHBPU); experiment: Post-emergence herbicidal action against PHBPU
How it was run: as §1

[13] = system: Avena fatua (AVEFA); experiment: Post-emergence herbicidal action against AVEFA; conditions: visual rating about 3 weeks after treatment
How it was run: as §1

[14] = system: Abutilon theophrasti (ABUTH); experiment: Pre-emergence herbicidal action against ABUTH; conditions: Dosage column 320 g/ha (title prints 3200 g/ha); scored visually after about 3 weeks; 100% = plants have died
How it was run: as §2

[15] = system: Alopecurus myosuroides (ALOMY); experiment: Pre-emergence herbicidal action against ALOMY; conditions: scored visually after about 3 weeks, 100% = plants have died
How it was run: as §2

[16] = system: Verconica persica (VERPE); experiment: Post-emergence herbicidal action against VERPE
How it was run: as §1

[17] = system: Setaria viridis (SETVI); experiment: Post-emergence herbicidal action against SETVI
How it was run: as §1

[18] = system: Digitaria sanguinalis (DIGSA); experiment: Pre-emergence herbicidal action against DIGSA
How it was run: as §2

[19] = system: Echinochloa crus-galli (ECHCG); experiment: Post-emergence herbicidal action against ECHCG; conditions: dosage 320 g/ha
How it was run: as §1

[20] = system: Abutilon theophrasti (ABUTH); experiment: Post-emergence herbicidal action against ABUTH; conditions: visual rating about 3 weeks after treatment vs untreated controls (100% = plants have died, 0% = like control plants)
How it was run: as §1

[21] = system: Pharbitis purpurea (PHBPU); experiment: Pre-emergence herbicidal action against PHBPU; conditions: dosage 320 g/ha
How it was run: as §2

[22] = system: Lolium rigidum (LOLRI); experiment: Post-emergence herbicidal action against LOLRI; conditions: dosage 320 g/ha
How it was run: as §1

[23] = system: Amaranthus retroflexus (AMARE); experiment: Pre-emergence herbicidal action against AMARE; conditions: visual scoring after about 3 weeks vs untreated controls
How it was run: as §2

[24] = system: Alopecurus myosuroides (ALOMY); experiment: Post-emergence herbicidal action against ALOMY; conditions: visual rating about 3 weeks after treatment vs untreated controls (100% = plants have died, 0% = like control plants)
How it was run: as §1

[25] = system: Matricaria inodora (MATIN); experiment: Post-emergence herbicidal action against MATIN; conditions: dosage 320 g/ha
How it was run: as §1

[26] = system: Amaranthus retroflexus (AMARE); experiment: Post-emergence herbicidal action against AMARE
How it was run: as §1

[27] = 80 g/ha, visual scoring after about 3 weeks vs untreated controls

COC(=O)[C@H](C)COC(=O)COc1nn(-c2ccccn2)c(-c2cncc(F)c2)c1Br [Example I-195]
Post-emergence action against POLCO in % ([1]; dosage 320 g/ha): 80% | Pre-emergence action against POLCO in % ([2]; dosage 80 g/ha): 90% | Pre-emergence action against POLCO in % ([2]; dosage 320 g/ha): 100% | Pre-emergence action against LOLRI in % ([3]; dosage 80 g/ha): 80% | Pre-emergence action against LOLRI in % ([3]; dosage 320 g/ha): 100% | Post-emergence action against VIOTR in % ([4]; 80 g/ha): 80% | Post-emergence action against VIOTR in % ([4]; 320 g/ha): 80% | Post-emergence action against DIGSA in % ([5]; 80 g/ha): 90% | Post-emergence action against DIGSA in % ([5]; 320 g/ha): 90% | Pre-emergence action against ECHCG in % [6]: 100% | Pre-emergence action against VIOTR in % ([7]; 320 g/ha, Viola tricolor): 100% | Pre-emergence action against VIOTR in % ([7]; dosage 80 g/ha): 80% | Pre-emergence action against MATIN in % ([8]; dosage 80 g/ha): 90% | Pre-emergence action against MATIN in % ([8]; dosage 320 g/ha): 90% | Pre-emergence action against SETVI in % ([9]; dosage 80 g/ha): 100% | Pre-emergence action against SETVI in % ([9]; dosage 320 g/ha): 100% | Pre-emergence action against VERPE in % ([10]; dosage 320 g/ha): 100% | Pre-emergence action against AVEFA in % [11]: 90% | Post-emergence action against PHBPU in % ([12]; dosage 80 g/ha): 90% | Post-emergence action against PHBPU in % ([12]; dosage 320 g/ha): 90% | Post-emergence action against AVEFA in % ([13]; 320 g/ha): 90% | Pre-emergence action against ABUTH [14]: 80% | Pre-emergence action against ALOMY ([15]; 80 g/ha): 80% | Pre-emergence action against ALOMY ([15]; 320 g/ha): 90% | Post-emergence action against VERPE in % ([16]; 320 g/ha, VERPE): 80% | Post-emergence action against VERPE in % ([16]; dosage 80 g/ha): 80% | Post-emergence action against SETVI in % ([17]; dosage 80 g/ha): 90% | Post-emergence action against SETVI in % ([17]; dosage 320 g/ha): 90% | Pre-emergence action against DIGSA in % [18, 27]: 90% | Pre-emergence action against DIGSA in % ([18]; dosage 320 g/ha): 100% | Post-emergence action against ECHCG in % [19]: 80% | Post-emergence action against ABUTH in % ([20]; 320 g/ha): 90% | Pre-emergence action against PHBPU in % [21]: 90% | Post-emergence action against LOLRI in % [22]: 80% | Pre-emergence action against AMARE in % ([23]; 80 g/ha): 90% | Pre-emergence action against AMARE in % ([23]; 320 g/ha): 100% | Post-emergence action against ALOMY in % ([24]; 80 g/ha): 80% | Post-emergence action against ALOMY in % ([24]; 320 g/ha): 90%

COC(=O)[C@@H](C)Oc1nn(-c2ncccc2F)c(-c2ccc(F)nc2)c1Br [Example I-05, Methyl (2R)-2-{[4-bromo-1-(3-fluoropyridin-2-yl)-5-(6-fluoropyridin-3-yl)-1H-pyrazol-3-yl]oxy}propanoate]
Post-emergence action against POLCO in % ([1]; dosage 80 g/ha): 90% | Post-emergence action against POLCO in % ([1]; dosage 320 g/ha): 90% | Pre-emergence action against POLCO in % ([2]; dosage 80 g/ha): 90% | Pre-emergence action against POLCO in % ([2]; dosage 320 g/ha): 90% | Pre-emergence action against LOLRI in % ([3]; dosage 80 g/ha): 80% | Pre-emergence action against LOLRI in % ([3]; dosage 320 g/ha): 100% | Post-emergence action against VIOTR in % ([4]; 80 g/ha): 100% | Post-emergence action against VIOTR in % ([4]; 320 g/ha): 100% | Post-emergence action against DIGSA in % ([5]; 320 g/ha): 90% | Pre-emergence action against ECHCG in % [6]: 100% | Pre-emergence action against VIOTR in % ([7]; 320 g/ha, Viola tricolor): 100% | Pre-emergence action against VIOTR in % ([7]; dosage 80 g/ha): 90% | Pre-emergence action against MATIN in % ([8]; dosage 320 g/ha): 90% | Post-emergence action against MATIN in % [25]: 100% | Pre-emergence action against SETVI in % ([9]; dosage 80 g/ha): 100% | Pre-emergence action against SETVI in % ([9]; dosage 320 g/ha): 100% | Pre-emergence action against VERPE in % ([10]; dosage 80 g/ha): 100% | Pre-emergence action against VERPE in % ([10]; dosage 320 g/ha): 100% | Pre-emergence action against AVEFA in % [11]: 90% | Post-emergence action against PHBPU in % ([12]; dosage 320 g/ha): 90% | Post-emergence action against AVEFA in % ([13]; 80 g/ha): 90% | Post-emergence action against AVEFA in % ([13]; 320 g/ha): 90% | Pre-emergence action against ABUTH [14]: 80% | Pre-emergence action against ALOMY ([15]; 80 g/ha): 90% | Pre-emergence action against ALOMY ([15]; 320 g/ha): 100% | Post-emergence action against VERPE in % ([16]; 320 g/ha, VERPE): 90% | Post-emergence action against VERPE in % ([16]; dosage 80 g/ha): 90% | Post-emergence action against SETVI in % ([17]; dosage 80 g/ha): 80% | Post-emergence action against SETVI in % ([17]; dosage 320 g/ha): 90% | Pre-emergence action against DIGSA in % [18, 27]: 100% | Pre-emergence action against DIGSA in % ([18]; dosage 320 g/ha): 100% | Post-emergence action against ECHCG in % [19]: 90% | Post-emergence action against ABUTH in % ([20]; 80 g/ha): 80% | Post-emergence action against ABUTH in % ([20]; 320 g/ha): 80% | Post-emergence action against LOLRI in % [22]: 90% | Pre-emergence action against AMARE in % ([23]; 80 g/ha): 90% | Pre-emergence action against AMARE in % ([23]; 320 g/ha): 100% | Post-emergence action against ALOMY in % ([24]; 80 g/ha): 90% | Post-emergence action against ALOMY in % ([24]; 320 g/ha): 100% | Post-emergence action against AMARE in % ([26]; 80 g/ha, visual rating about 3 weeks after treatment vs untreated controls (100% = plants have died, 0% = like control plants)): 90% | Post-emergence action against AMARE in % ([26]; 320 g/ha, visual rating about 3 weeks after treatment): 90%
